Where two headings read alike, the source gives them in different places. Non-standard residues stand in square brackets, D forms with d. Residues, ends and D or L forms follow the SMILES beside them. No end group written: not given here. NMeL = CN[C@@H](CC(C)C)C(=O)O; βAla = NCCC(=O)O
Key:
[1] = target: T1, human recombinant NK1 receptors (Homo sapiens, UniProt P25103); assay: cell-based; format: cell-based
Protocol: (§1) CHO-hNK2 and CHO-hNK1 cells were transiently transfected with a CRE-LUC reporter construct using Lipofectamine 2000. At 24 h post-transfection, cells were plated at a density of 20,000 cells/well in a 96-well culture plate. […] Luciferase expression was measured after 5 h of incubation at 37°C (in the presence of 5% CO2) by adding Firefly Luciferase reagent, followed by Renilla Luciferase reagent. Luminescence was measured by using an Envision Multilabel flash lamp reader after addition of the first and second reagents. Data were normalized by calculating the ratio of the Firefly luminescence from the CRE reporter to the Renilla luminescence from the control Renilla Luciferase vector.

[2] = target: T2, human recombinant NK2 receptors (Homo sapiens, UniProt P21452); assay: cell-based; conditions: for EC50: CHO-hNK2 cells
T2 sequence (P21452 1-398): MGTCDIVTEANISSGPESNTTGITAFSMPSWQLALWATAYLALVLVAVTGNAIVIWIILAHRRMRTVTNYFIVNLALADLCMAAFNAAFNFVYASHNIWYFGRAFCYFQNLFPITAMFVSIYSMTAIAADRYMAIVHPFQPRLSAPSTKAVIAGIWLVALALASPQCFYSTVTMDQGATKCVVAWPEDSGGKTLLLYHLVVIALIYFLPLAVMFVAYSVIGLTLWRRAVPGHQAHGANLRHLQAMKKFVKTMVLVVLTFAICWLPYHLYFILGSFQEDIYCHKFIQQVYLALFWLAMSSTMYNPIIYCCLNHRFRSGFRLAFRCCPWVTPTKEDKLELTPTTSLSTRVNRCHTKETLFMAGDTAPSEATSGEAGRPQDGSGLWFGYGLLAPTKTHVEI
Protocol: as §1

[3] = target: T2, human recombinant NK2 receptors; assay: Displacement of [^125I]-NKA binding to CHO-hNK2 membranes
[4] = target: T1, human recombinant NK1 receptors; assay: Displacement of [^3H]-Septide binding to CHO-hNK1 membranes (septide site)
Protocol: Protein expression was induced by addition of 5 mM sodium butyrate to the culture medium. […] The cell suspension was collected, placed on ice and centrifuged for 5 min at 4°C and 1200 rpm in a Beckman GS6R centrifuge. After removal of the supernatant the cell pellet was washed and collected by re-suspension in PBS and centrifugation. The final pellet was weighed and frozen at -80°C until use. Frozen pellets were thawed and homogenized in 10 volumes (w/v) of membrane preparation buffer (50 mM HEPES pH 7.4, 1 mM EDTA, 50 μg/mL bacitracin and protease inhibitors) using a Polytron Ultraturrax (twice for 15 s per cycle). The homogenate was centrifuged for 20 min at 4°C and 18500 rpm in a SL-50T Sorvall rotor and the pellet was re-suspended in membrane preparation buffer and re-homogenized as before. After centrifugation for 20 min at 4°C and 18500 rpm, the pellets were re-suspended in 5 volumes of membrane preparation buffer and divided into aliquots before freezing at -80°C. Protein concentration was determined using BioRad Protein Assay (Milan, Italy) with a BSA standard curve. Stock solutions of test compounds (10 mM) were prepared in DMSO and stored at -20°C until use. […] The goodness of fit between One-Site and Two-Site models was examined using Akaike's Information Corrected Criteria (AICC; [23]) in SAS v9.4 (SAS Institute, Cary NC) in order to select the best model for the data generated. […] Data from displacement experiments were plotted as the log [inhibitor concentration] (X axis) versus response expressed as TB in cpm (Y axis).

[5] = target: T2, human recombinant NK2 receptors; assay: cell-based
Protocol: (§2) Human recombinant NK2 and NK1 receptors were generated using stably transfected CHO cells (CHO-hNK2 and CHO-hNK1, respectively). Human NK2 or NK1 receptor expressing vectors from Genecopeia (Rockville, USA) were transfected in CHO cells using the standard FuGENE protocol and cells were selected using 450 μg/mL geneticin (G418). Clones expressing the receptors were selected by functional coupling to calcium using FLIPR and a single clone for each receptor subtype was selected for expansion and stable cell line generation. Cells were cultured in a humidified incubator with 5% CO2 in F12K medium containing 10% heat inactivated FBS and 450 μg/mL geneticin and passaged on reaching 80–90% confluence.
(§3) The agonist efficacy of the test compounds at recombinant human NK1 or NK2 receptors expressed in CHO cells was assessed by measuring the intracellular calcium response using the calcium-sensitive dye Fluo-4 AM (Eugene, OR, USA) and a Fluorometric Imaging Plate Reader (FLIPR, Molecular Devices, CA, USA). CHO-hNK1 and CHO-hNK2 cells were seeded into black walled clear-bottom 384-well plates at a density of 10,000 and 15,000 cells per well in 50 μL culture media, respectively, and grown overnight at 37°C in a humidified CO2-incubator. Cells were washed in washing buffer using an EMBLA 384 plate washer, leaving 20 μL of buffer per well after the final aspiration. Cells were then incubated at 37°C with the cytoplasmic Ca^2+ indicator Fluo-4 AM (final concentration 1 μM) in assay buffer (20 mM HEPES, 145 mM NaCl, 5 mM KCl, 5.5 mM glucose, 1 mM MgCl2 and 2 mM CaCl2, pH 7.4, 0.05% Pluronic F-127 and 0.1% BSA) containing 2.5 mM probenecid for 45–60 min (cell loading). Cells were then washed 3 times in washing buffer (20 mM HEPES, 145 mM NaCl, 5 mM KCl, 5.5 mM glucose, 1 mM MgCl2 and 2 mM CaCl2, pH 7.4 and 2.5 mM probenecid) using an EMBLA 384 plate washer, leaving 30 μL of buffer in each well after the last wash. Loaded cell plates were transferred to the FLIPR and calcium responses were monitored as described below. […] Concentration response curves of test compounds were generated in duplicate on at least two different occasions from the same stock solutions. Test solutions were prepared from 10 mM stock solutions in DMSO and 1 μL of each solution was stamped into V-bottom assay plates containing 49 μL assay buffer. The final concentration of DMSO was 0.5% in each well.

[6] = target: T1, human recombinant NK1 receptors; assay: cell-based
Protocol: as §2, §3

[7] = target: T3, NK2 receptor (Homo sapiens, UniProt P21452); assay: [125I]-NKA displacement
T3 chain: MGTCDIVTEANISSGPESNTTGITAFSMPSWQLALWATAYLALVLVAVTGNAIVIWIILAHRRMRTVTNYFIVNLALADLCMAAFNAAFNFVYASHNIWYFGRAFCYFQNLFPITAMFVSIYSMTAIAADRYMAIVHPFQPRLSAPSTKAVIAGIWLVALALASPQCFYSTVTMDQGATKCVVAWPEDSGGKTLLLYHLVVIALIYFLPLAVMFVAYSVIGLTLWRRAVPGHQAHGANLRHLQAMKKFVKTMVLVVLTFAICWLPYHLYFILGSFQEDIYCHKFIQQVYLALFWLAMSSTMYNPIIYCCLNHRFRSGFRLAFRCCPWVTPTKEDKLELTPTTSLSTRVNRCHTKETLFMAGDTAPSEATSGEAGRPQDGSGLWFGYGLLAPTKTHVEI

[8] = target: T4, NK1 receptor (Homo sapiens, UniProt P25103); assay: [3H]-Septide displacement
T4 chain: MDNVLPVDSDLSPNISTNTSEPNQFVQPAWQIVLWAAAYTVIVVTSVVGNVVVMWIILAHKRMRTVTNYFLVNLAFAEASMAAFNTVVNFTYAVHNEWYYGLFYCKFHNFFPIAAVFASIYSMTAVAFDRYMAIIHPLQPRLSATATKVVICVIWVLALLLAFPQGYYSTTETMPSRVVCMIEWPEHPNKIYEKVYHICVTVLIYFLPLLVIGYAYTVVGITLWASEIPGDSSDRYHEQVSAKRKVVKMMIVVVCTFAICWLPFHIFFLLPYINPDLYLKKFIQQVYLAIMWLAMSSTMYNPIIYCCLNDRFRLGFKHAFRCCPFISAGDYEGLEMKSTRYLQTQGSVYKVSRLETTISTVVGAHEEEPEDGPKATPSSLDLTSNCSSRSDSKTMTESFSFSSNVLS

[9] = CHO-hNK1 cells, % of maximal response observed with substance P, mean ± SD
[10] = CHO-hNK1 cells, mean ± SD, read-out: cAMP stimulation pEC50 (converted)
[11] = CHO-hNK1 cells, read-out: NK1 EC50 cAMP stimulation
[12] = mean ± SD, read-out: cAMP stimulation pEC50 (converted)
[13] = read-out: NK2 EC50 cAMP stimulation
[14] = 5.0 nM [^3H]-Septide, CHO-hNK1 membranes 20 μg/well, 23°C, 1 h, mean ± SD, read-out: [^3H]-Septide binding pKi (converted)
[15] = displacement of [^3H]-Septide binding, read-out: NK1 [^3H]-Septide Ki
[16] = Intracellular Ca^2+ pEC50, CHO-hNK2 cells, mean ± SD
[17] = NK2 EC50 intracellular calcium response, CHO-hNK2 cells
[18] = Intracellular Ca^2+ pEC50, CHO-hNK1 cells, mean ± SD
[19] = NK1 EC50 intracellular calcium response, CHO-hNK1 cells

Molecule: CSCC[C@H](NC(=O)[C@H](CC(C)C)NC(=O)CNC(=O)[C@@H](NC(=O)[C@H](Cc1ccccc1)NC(=O)[C@H](CO)NC(=O)[C@H](CC(=O)O)NC(=O)[C@@H](NC(=O)[C@H](CCCCN)NC(=O)[C@@H](N)Cc1c[nH]cn1)[C@@H](C)O)C(C)C)C(N)=O [NKA, reference compound]
- cAMP stimulation % Max [1, 9]: 100.5 ± 13.6%

Molecule: CCCC[C@H](NC(=O)[C@H](CC(C)C)N(C)C(=O)CNC(=O)[C@@H](NC(=O)[C@H](Cc1ccccc1)NC(=O)[C@H](CCCCN)NC(=O)[C@@H](N)CC(=O)O)C(C)C)C(N)=O [[Lys^5,MeLeu^9,Nle^10]-NKA(4-10), Asp-Lys-Phe-Val-Gly-Leu(NMe)-Nle-NH2]
- cAMP stimulation % Max [1]: 94.3 ± 21.6%
- EC50 [1, 10]: 1.78 nM
- EC50 [1, 11]: 1.78 nM
- cAMP stimulation % Max [2]: 107.4 ± 7.36%
- EC50 [2, 12]: 0.024 nM
- EC50 [2, 13]: 0.024 nM
- Ki ([3]; NK2 [^125I]-NKA Ki, displacement of [^125I]-NKA binding): 0.87 nM
- Ki ([3]; [^125I]-NKA binding pKi, 0.1 nM [^125I]-NKA, CHO-hNK2 membranes 6 μg/well, 23°C, 3 h, mean ± SD): 0.871 nM
- Fold more selective for NK2 over septide site of NK1 receptor compared with NKA (binding) ([3]; from Ki ratios): more than 28 fold
- Ki [4, 14]: 589 nM
- Ki [4, 15]: 589 nM
- Intracellular Ca^2+ % Max [5]: 101.4 ± 3.0%
- EC50 [5, 16]: 0.148 nM
- EC50 [5, 17]: 0.15 nM
- Fold more selective than NKA for activation of NK2 over NK1 receptors (calcium) ([5]; from EC50 ratios): approximately 100 fold
- Intracellular Ca^2+ % Max [6]: 107.6 ± 3.1%
- EC50 [6, 18]: 15.5 nM
- EC50 [6, 19]: 15.5 nM

Molecule: CSCC[C@H](NC(=O)[C@H](CC(C)C)N(C)C(=O)CNC(=O)[C@@H](NC(=O)[C@H](Cc1ccccc1)NC(=O)[C@H](CCCCN)NC(=O)[C@@H](N)CC(=O)O)C(C)C)C(N)=O [[Lys^5,MeLeu^9]-NKA(4–10), Asp-Lys-Phe-Val-Gly-(NMe-Leu)-Met-NH2]
- NK1/NK2 ratio of Ki values [3]: 251
- [^125I]-NKA binding Slope [3]: -0.84 ± 0.06
- [^125I]-NKA binding pKi [3]: 9.70 ± 0.16
- [^3H]-Septide binding pKi ([4]; 5.0 nM [^3H]-Septide, CHO-hNK1 membranes 20 μg/well, 23°C, 1 h, mean ± SD): 7.30 ± 0.16
- [^3H]-Septide binding Slope ([4]; Hill slope of displacement curve, 5.0 nM [^3H]-Septide, 23°C, 1 h, mean ± SD): -0.89 ± 0.01
- Intracellular Ca^2+ % Max ([5]; CHO-hNK2 cells, % of maximal response observed with NKA, mean ± SD): 88.2 ± 11.4%
- EC50 [5, 16]: 0.145 nM
- NK1/NK2 ratio of EC50s for intracellular calcium response ([5]; NK1 EC50 / NK2 EC50): 7
- Intracellular Ca^2+ % Max [6, 9]: 106.7 ± 5.7%
- Intracellular Ca^2+ pEC50 ([6]; CHO-hNK1 cells, mean ± SD): 9.02 ± 0.39

Molecule: CSCC[C@H](NC(=O)[C@H](CC(C)C)NC(=O)CCNC(=O)[C@@H](NC(=O)[C@H](Cc1ccccc1)NC(=O)[C@H](CO)NC(=O)[C@@H](N)CC(=O)O)C(C)C)C(N)=O [[β-Ala^8]-NKA(4–10), Asp-Ser-Phe-Val-[β-Ala]-Leu-Met-NH2] (H-DSFV[βAla]LM-NH2)
- cAMP stimulation % Max [1]: 97.3 ± 24.8%
- EC50 [1, 10]: 5.62 nM
- EC50 [1, 11]: 5.62 nM
- cAMP stimulation % Max [2]: 84.6 ± 13.1%
- EC50 [2, 12]: 0.0234 nM
- EC50 [2, 13]: 0.023 nM
- Ki [4, 14]: 2090 nM
- Ki [4, 15]: 2090 nM
- Intracellular Ca^2+ % Max [5]: 102.2 ± 7.4%
- EC50 [5, 16]: 0.871 nM
- EC50 [5, 17]: 0.86 nM
- Intracellular Ca^2+ % Max [6]: 106.0 ± 11.5%
- EC50 [6, 18]: 46.8 nM
- EC50 [6, 19]: 46.8 nM

Molecule: DRFVGLM-NH2 [[Arg5]-NKA(4-10)]
- Ki [7]: 0.31 nM
- Ki [8]: 8.3 nM

Molecule: DKFVG[NMeL]M-NH2 [[Lys5,MeLeu9]-NKA(4-10)]
- Ki [7]: 0.2 nM
- Ki [8]: 50.1 nM

B1: [Arg5,MeLeu9]-NKA(4-10) (peptide)
chain: DRFVG[NMeL]M-NH2
modifications: N-terminus assumed
SMILES: CSCC[C@H](NC(=O)[C@H](CC(C)C)N(C)C(=O)CNC(=O)[C@@H](NC(=O)[C@H](Cc1ccccc1)NC(=O)[C@H](CCCNC(=N)N)NC(=O)[C@@H](N)CC(=O)O)C(C)C)C(N)=O
- Ki [7]: 0.12 nM
- Ki [8]: 20.9 nM

Molecule: DSFVGLM-NH2 [NKA(4-10)]
- Ki [7]: 2.3 nM

From publication PMC6201908, “Affinity, potency, efficacy, and selectivity of neurokinin A analogs at human recombinant NK2 and NK1 receptors” (PLoS ONE, 2018)
